Laboratory results taken from publication PMC12397098, “3-Monothiopomalidomide, a new immunomodulatory imide drug (IMiD), blunts inflammation and mitigates ischemic stroke in the rat” (GeroScience, 2025).

Assays:
[1] = biological target: T1, Adrenergic Alpha1B receptor (Homo sapiens, UniProt P35368); assay: PDSP radioligand binding; conditions: read-out: 3-MP concentration required to induce 50% inhibition of PDSP radioligand binding
T1 construct: NIMH Psychoactive Drug Screening Program (PDSP)
Description: (§1) To evaluate potential binding at classical neurological drug targets, 3-MP and 3,6’-DP were submitted to the National Institute on Mental Health (NIMH) Psychoactive Drug Screening Program (PDSP: Univ. N Carolina, Chapel Hill, NC, USA < https://pdspdb.unc.edu/pdspweb/ >) as powdered samples in the provided vials. The materials were then prepared at the PDSP in 10% DMSO, subjected to multiple assay screens, and processed as per the PDSP Assay Protocol Book (Version 3, March 2018). Compounds that exceeded an initial 10 uM binding threshold were then delegated for secondary dose–response analysis. This screen comprised a 45-target comprehensive panel of common brain receptor and transporter drug targets.

[2] = biological target: T2, Adrenergic Alpha1D receptor (Homo sapiens, UniProt P25100); assay: PDSP radioligand binding; conditions: read-out: 3-MP concentration required to induce 50% inhibition of PDSP radioligand binding
T2 construct: NIMH Psychoactive Drug Screening Program (PDSP)
Description: as §1

[3] = biological target: T3, Adrenergic Alpha2A receptor (Homo sapiens, UniProt P08913); assay: PDSP radioligand binding; conditions: read-out: 3-MP concentration required to induce 50% inhibition of PDSP radioligand binding
T3 construct: NIMH Psychoactive Drug Screening Program (PDSP)
Description: as §1

[4] = biological target: T4, Adrenergic Beta1 receptor (Homo sapiens, UniProt P08588); assay: PDSP radioligand binding; conditions: read-out: 3-MP concentration required to induce 50% inhibition of PDSP radioligand binding
T4 construct: NIMH Psychoactive Drug Screening Program (PDSP)
T4 sequence (P08588 whole entry): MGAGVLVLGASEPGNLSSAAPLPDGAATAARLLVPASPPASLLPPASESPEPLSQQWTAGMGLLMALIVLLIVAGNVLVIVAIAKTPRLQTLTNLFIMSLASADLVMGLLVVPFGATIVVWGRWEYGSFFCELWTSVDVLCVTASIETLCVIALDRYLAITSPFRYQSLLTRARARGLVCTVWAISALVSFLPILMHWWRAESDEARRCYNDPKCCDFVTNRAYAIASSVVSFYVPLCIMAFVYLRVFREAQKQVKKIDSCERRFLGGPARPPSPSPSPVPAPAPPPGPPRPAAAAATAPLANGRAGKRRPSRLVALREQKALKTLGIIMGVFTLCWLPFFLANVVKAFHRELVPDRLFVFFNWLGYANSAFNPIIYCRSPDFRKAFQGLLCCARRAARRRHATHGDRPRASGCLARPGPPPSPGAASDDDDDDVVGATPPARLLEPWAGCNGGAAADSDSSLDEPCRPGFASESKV
Description: as §1

[5] = biological target: T5, Adrenergic Beta2 receptor (Homo sapiens, UniProt P07550); assay: PDSP radioligand binding; conditions: read-out: 3-MP concentration required to induce 50% inhibition of PDSP radioligand binding
T5 construct: NIMH Psychoactive Drug Screening Program (PDSP)
Description: as §1

[6] = biological target: Benzodiazepine BZP receptor; assay: PDSP radioligand binding; conditions: read-out: 3-MP concentration required to induce 50% inhibition of PDSP radioligand binding
Description: as §1

[7] = biological target: T6, Benzodiazepine PBR receptor (Rattus norvegicus, UniProt P16257); assay: PDSP radioligand binding; conditions: read-out: 3-MP concentration required to induce 50% inhibition of PDSP radioligand binding
T6 construct: NIMH Psychoactive Drug Screening Program (PDSP)
Description: as §1

DAT transporter = DAT transporter (Homo sapiens, UniProt Q01959); assay: PDSP radioligand binding; conditions: read-out: 3-MP concentration required to induce 50% inhibition of PDSP radioligand binding
Description: as §1

Dopamine D1 receptor = biological target: T7, Dopamine D1 receptor (Homo sapiens, UniProt P21728); assay: PDSP radioligand binding; conditions: read-out: 3-MP concentration required to induce 50% inhibition of PDSP radioligand binding
T7 construct: NIMH Psychoactive Drug Screening Program (PDSP)
Description: as §1

Dopamine D2 receptor = biological target: T8, Dopamine D2 receptor (Homo sapiens, UniProt P14416); assay: PDSP radioligand binding; conditions: read-out: 3-MP concentration required to induce 50% inhibition of PDSP radioligand binding
T8 construct: NIMH Psychoactive Drug Screening Program (PDSP)
Description: as §1

Dopamine D3 receptor = Dopamine D3 receptor (Homo sapiens, UniProt P35462); assay: PDSP radioligand binding; conditions: read-out: 3-MP concentration required to induce 50% inhibition of PDSP radioligand binding
Description: as §1

Dopamine D4 receptor = Dopamine D4 receptor (Homo sapiens, UniProt P21917); assay: PDSP radioligand binding; conditions: read-out: 3-MP concentration required to induce 50% inhibition of PDSP radioligand binding
Description: as §1

Dopamine D5 receptor = Dopamine D5 receptor (Homo sapiens, UniProt P21918); assay: PDSP radioligand binding; conditions: read-out: 3-MP concentration required to induce 50% inhibition of PDSP radioligand binding
Description: as §1

GABAA receptor = assay: PDSP radioligand binding; conditions: read-out: 3-MP concentration required to induce 50% inhibition of PDSP radioligand binding
Description: as §1

Histamine H1 receptor = Histamine H1 receptor (Homo sapiens, UniProt P35367); assay: PDSP radioligand binding; conditions: read-out: 3-MP concentration required to induce 50% inhibition of PDSP radioligand binding
Histamine H1 receptor, sequence (P35367 whole entry): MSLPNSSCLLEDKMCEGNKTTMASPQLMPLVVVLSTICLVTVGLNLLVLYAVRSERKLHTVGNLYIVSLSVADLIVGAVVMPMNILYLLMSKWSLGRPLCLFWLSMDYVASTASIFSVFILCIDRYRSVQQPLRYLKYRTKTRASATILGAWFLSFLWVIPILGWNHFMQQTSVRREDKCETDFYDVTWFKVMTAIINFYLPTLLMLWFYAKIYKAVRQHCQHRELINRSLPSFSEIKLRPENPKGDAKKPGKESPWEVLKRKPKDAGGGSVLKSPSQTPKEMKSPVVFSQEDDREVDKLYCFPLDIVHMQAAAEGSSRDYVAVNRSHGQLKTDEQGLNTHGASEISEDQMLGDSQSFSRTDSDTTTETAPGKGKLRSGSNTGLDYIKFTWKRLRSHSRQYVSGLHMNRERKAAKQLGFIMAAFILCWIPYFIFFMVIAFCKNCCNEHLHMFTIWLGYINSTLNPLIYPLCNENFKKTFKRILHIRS
Description: as §1

Histamine H2 receptor = Histamine H2 receptor (Homo sapiens, UniProt P25021); assay: PDSP radioligand binding; conditions: read-out: 3-MP concentration required to induce 50% inhibition of PDSP radioligand binding
Description: as §1

Histamine H4 receptor = Histamine H4 receptor (Homo sapiens, UniProt Q9H3N8); assay: PDSP radioligand binding; conditions: read-out: 3-MP concentration required to induce 50% inhibition of PDSP radioligand binding
Description: as §1

Muscarinic M3 receptor = Muscarinic M3 receptor (Homo sapiens, UniProt P20309); assay: PDSP radioligand binding; conditions: read-out: 3-MP concentration required to induce 50% inhibition of PDSP radioligand binding
Description: as §1

Muscarinic M5 receptor = Muscarinic M5 receptor (Homo sapiens, UniProt P08912); assay: PDSP radioligand binding; conditions: read-out: 3-MP concentration required to induce 50% inhibition of PDSP radioligand binding
Description: as §1

NET transporter = NET transporter (Homo sapiens, UniProt P23975); assay: PDSP radioligand binding; conditions: read-out: 3-MP concentration required to induce 50% inhibition of PDSP radioligand binding
NET transporter, sequence (P23975 whole entry): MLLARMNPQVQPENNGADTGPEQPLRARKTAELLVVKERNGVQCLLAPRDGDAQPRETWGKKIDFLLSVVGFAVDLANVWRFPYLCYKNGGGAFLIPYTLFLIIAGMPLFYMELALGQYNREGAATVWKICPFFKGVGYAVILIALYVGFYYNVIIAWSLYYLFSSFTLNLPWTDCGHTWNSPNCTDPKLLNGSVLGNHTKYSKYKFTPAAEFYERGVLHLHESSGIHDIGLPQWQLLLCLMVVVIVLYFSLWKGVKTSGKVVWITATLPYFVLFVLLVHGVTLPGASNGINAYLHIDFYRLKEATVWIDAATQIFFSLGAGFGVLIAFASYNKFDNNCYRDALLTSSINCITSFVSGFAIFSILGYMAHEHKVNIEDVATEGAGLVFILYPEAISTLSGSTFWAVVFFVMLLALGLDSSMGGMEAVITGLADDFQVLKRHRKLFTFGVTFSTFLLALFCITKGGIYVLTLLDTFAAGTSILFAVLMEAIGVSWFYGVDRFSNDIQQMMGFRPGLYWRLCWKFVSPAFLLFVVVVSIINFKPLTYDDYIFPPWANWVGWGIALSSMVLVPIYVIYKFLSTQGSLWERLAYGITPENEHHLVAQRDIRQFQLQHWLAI
Description: as §1

SERT transporter = SERT transporter (Homo sapiens, UniProt P31645); assay: PDSP radioligand binding; conditions: read-out: 3-MP concentration required to induce 50% inhibition of PDSP radioligand binding
Description: as §1

[8] = biological target: T9, Serotonin 5-HT1B receptor (Homo sapiens, UniProt P28222); assay: PDSP radioligand binding; conditions: read-out: 3-MP concentration required to induce 50% inhibition of PDSP radioligand binding
T9 construct: NIMH Psychoactive Drug Screening Program (PDSP)
T9 sequence (P28222 whole entry): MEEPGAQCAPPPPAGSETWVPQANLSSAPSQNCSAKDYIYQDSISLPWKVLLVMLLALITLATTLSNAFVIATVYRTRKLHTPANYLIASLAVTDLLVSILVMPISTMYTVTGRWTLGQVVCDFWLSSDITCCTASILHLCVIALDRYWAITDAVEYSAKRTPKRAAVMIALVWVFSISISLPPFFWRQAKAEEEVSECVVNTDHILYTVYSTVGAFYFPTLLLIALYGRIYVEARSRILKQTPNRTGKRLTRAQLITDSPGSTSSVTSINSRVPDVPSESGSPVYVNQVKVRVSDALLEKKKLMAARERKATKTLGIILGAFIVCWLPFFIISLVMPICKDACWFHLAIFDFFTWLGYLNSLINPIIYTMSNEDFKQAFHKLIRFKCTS
Description: as §1

[9] = biological target: T10, Serotonin 5-HT1D receptor (Homo sapiens, UniProt P28221); assay: PDSP radioligand binding; conditions: read-out: 3-MP concentration required to induce 50% inhibition of PDSP radioligand binding
T10 construct: NIMH Psychoactive Drug Screening Program (PDSP)
T10 sequence (P28221 whole entry): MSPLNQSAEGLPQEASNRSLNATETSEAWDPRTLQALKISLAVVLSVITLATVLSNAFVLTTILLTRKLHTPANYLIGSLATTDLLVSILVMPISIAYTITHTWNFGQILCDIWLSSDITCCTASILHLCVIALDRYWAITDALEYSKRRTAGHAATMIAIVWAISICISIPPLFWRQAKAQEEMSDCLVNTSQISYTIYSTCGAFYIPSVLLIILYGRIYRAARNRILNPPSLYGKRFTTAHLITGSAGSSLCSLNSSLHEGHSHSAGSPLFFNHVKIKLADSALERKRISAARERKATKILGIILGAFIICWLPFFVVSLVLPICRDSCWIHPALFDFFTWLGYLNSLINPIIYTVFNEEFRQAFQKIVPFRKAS
Description: as §1

[10] = biological target: T11, Serotonin 5-HT1E receptor (Homo sapiens, UniProt P28566); assay: PDSP radioligand binding; conditions: read-out: 3-MP concentration required to induce 50% inhibition of PDSP radioligand binding
T11 construct: NIMH Psychoactive Drug Screening Program (PDSP)
Description: as §1

[11] = biological target: T12, Serotonin 5-HT2A receptor (Homo sapiens, UniProt P28223); assay: PDSP radioligand binding; conditions: read-out: 3-MP concentration required to induce 50% inhibition of PDSP radioligand binding
T12 construct: NIMH Psychoactive Drug Screening Program (PDSP)
T12 sequence (P28223 whole entry): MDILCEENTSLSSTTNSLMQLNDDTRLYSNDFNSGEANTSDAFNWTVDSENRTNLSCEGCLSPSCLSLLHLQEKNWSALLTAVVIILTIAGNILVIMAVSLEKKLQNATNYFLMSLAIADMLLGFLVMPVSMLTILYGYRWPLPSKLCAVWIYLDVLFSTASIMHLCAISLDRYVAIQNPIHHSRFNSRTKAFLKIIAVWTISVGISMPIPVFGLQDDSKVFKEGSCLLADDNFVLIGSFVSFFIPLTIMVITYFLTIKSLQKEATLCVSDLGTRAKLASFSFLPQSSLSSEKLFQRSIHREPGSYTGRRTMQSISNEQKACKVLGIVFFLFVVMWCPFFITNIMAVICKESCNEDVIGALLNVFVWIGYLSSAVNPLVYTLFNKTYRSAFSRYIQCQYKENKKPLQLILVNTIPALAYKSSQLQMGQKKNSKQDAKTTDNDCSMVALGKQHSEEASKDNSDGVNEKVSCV
Description: as §1

[12] = biological target: T13, Serotonin 5-HT2C receptor (Homo sapiens, UniProt P28335); assay: PDSP radioligand binding; conditions: read-out: 3-MP concentration required to induce 50% inhibition of PDSP radioligand binding
T13 construct: NIMH Psychoactive Drug Screening Program (PDSP)
Description: as §1

Serotonin 5-HT3 receptor = biological target: T14, Serotonin 5-HT3 receptor (Homo sapiens, UniProt P46098); assay: PDSP radioligand binding; conditions: read-out: 3-MP concentration required to induce 50% inhibition of PDSP radioligand binding
T14 construct: NIMH Psychoactive Drug Screening Program (PDSP)
T14 sequence (P46098 24-478): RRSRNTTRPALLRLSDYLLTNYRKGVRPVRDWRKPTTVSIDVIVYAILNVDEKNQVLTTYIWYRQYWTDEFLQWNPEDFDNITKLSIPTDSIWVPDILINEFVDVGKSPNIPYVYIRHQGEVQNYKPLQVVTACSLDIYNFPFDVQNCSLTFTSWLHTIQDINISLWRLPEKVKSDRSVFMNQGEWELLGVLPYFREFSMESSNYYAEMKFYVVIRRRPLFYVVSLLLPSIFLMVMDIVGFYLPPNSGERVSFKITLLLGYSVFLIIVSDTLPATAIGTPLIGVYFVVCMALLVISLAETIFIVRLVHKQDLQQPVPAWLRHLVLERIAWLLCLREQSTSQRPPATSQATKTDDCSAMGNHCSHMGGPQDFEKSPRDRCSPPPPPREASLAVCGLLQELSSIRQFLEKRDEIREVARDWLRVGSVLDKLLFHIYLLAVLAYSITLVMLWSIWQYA
Description: as §1

[13] = biological target: T15, Serotonin 5-HT5A receptor (Homo sapiens, UniProt P47898); assay: PDSP radioligand binding; conditions: read-out: 3-MP concentration required to induce 50% inhibition of PDSP radioligand binding
T15 construct: NIMH Psychoactive Drug Screening Program (PDSP)
Description: as §1

Serotonin 5-HT6 receptor = biological target: T16, Serotonin 5-HT6 receptor (Homo sapiens, UniProt P50406); assay: PDSP radioligand binding; conditions: read-out: 3-MP concentration required to induce 50% inhibition of PDSP radioligand binding
T16 construct: NIMH Psychoactive Drug Screening Program (PDSP)
T16 sequence (P50406 whole entry): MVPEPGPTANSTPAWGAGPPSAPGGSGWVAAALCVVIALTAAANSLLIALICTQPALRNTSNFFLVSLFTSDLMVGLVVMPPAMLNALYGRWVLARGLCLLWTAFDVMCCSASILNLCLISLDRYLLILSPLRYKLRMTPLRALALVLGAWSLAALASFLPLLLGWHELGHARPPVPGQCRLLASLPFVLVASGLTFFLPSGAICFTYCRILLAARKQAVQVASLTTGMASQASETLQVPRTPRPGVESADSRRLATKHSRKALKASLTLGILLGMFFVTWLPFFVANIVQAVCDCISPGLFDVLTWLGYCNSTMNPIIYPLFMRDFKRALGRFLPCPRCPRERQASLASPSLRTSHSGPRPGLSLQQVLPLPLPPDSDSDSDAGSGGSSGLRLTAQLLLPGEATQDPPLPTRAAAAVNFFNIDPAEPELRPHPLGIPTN
Description: as §1

[14] = biological target: T17, Serotonin 5-HT7A receptor (Homo sapiens, UniProt P34969); assay: PDSP radioligand binding; conditions: read-out: 3-MP concentration required to induce 50% inhibition of PDSP radioligand binding
T17 construct: NIMH Psychoactive Drug Screening Program (PDSP)
Description: as §1

Sigma 2 receptor = Sigma 2 receptor (Rattus norvegicus, UniProt Q5U3Y7); assay: PDSP radioligand binding; conditions: read-out: 3-MP concentration required to induce 50% inhibition of PDSP radioligand binding
Sigma 2 receptor, sequence (Q5U3Y7 whole entry): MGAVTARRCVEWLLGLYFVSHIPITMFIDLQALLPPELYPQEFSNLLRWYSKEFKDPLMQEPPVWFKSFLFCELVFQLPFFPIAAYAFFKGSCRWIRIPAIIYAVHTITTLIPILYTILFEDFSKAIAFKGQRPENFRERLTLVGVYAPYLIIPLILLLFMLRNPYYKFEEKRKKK
Description: as §1

κ-opioid receptor = κ-opioid receptor (Homo sapiens, UniProt P41145); assay: PDSP radioligand binding; conditions: read-out: 3-MP concentration required to induce 50% inhibition of PDSP radioligand binding
κ-opioid receptor, sequence (P41145 whole entry): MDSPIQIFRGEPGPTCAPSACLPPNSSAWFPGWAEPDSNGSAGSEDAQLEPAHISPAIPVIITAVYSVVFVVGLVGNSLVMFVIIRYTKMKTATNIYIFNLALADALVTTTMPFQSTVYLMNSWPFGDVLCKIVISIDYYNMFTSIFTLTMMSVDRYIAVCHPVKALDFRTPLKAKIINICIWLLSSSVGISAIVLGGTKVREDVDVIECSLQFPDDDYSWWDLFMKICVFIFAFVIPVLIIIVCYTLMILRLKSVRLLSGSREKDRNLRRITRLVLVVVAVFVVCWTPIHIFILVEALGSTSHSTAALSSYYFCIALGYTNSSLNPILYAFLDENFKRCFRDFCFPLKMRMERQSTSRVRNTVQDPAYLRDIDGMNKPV
Description: as §1

μ-opioid receptor = μ-opioid receptor (Homo sapiens, UniProt P35372); assay: PDSP radioligand binding; conditions: read-out: 3-MP concentration required to induce 50% inhibition of PDSP radioligand binding
μ-opioid receptor, sequence (P35372 whole entry): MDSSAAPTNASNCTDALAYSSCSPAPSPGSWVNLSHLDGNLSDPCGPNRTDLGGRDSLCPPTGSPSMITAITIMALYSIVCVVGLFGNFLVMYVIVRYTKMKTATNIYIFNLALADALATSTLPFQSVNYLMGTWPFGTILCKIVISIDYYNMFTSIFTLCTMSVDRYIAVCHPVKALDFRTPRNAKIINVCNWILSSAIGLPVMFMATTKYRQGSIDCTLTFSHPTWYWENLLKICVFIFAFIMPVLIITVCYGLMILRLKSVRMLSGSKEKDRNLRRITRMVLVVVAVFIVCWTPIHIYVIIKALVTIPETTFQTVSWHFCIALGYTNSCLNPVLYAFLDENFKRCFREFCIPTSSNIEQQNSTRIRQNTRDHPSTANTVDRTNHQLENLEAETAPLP
Description: as §1

in vitro = conditions: Sprague Dawley, rat, microsomes

Compound Nc1cccc2c1C(=S)N(C1CCC(=O)NC1=O)C2=O (stereo not drawn) [3-MP, 3-Monothiopomalidomide] has an IC50 [1] greater than 10 µM, an IC50 [2] greater than 10 µM and an IC50 [3] greater than 10 µM. It also gave an IC50 [4] greater than 10 µM, an IC50 [5] greater than 10 µM and an IC50 [6] greater than 10 µM. For the same compound, the IC50 [7] was greater than 10 µM, the IC50 (DAT transporter) was greater than 10 µM and the IC50 (Dopamine D1 receptor) was greater than 10 µM. For the same compound, the IC50 (Dopamine D2 receptor) was greater than 10 µM, the IC50 (Dopamine D3 receptor) was greater than 10 µM and the IC50 (Dopamine D4 receptor) was greater than 10 µM. It also gave an IC50 (Dopamine D5 receptor) greater than 10 µM, an IC50 (GABAA receptor) greater than 10 µM and an IC50 (Histamine H1 receptor) greater than 10 µM. The IC50 (Histamine H2 receptor) was greater than 10 µM, the IC50 (Histamine H4 receptor) was greater than 10 µM and the IC50 (Muscarinic M3 receptor) was greater than 10 µM. It also gave an IC50 (Muscarinic M5 receptor) greater than 10 µM, an IC50 (NET transporter) greater than 10 µM and an IC50 (SERT transporter) greater than 10 µM. The IC50 [8] was greater than 10 µM, the IC50 [9] was greater than 10 µM and the IC50 [10] was greater than 10 µM. For the same compound, the IC50 [11] was greater than 10 µM, the IC50 [12] was greater than 10 µM and the IC50 (Serotonin 5-HT3 receptor) was greater than 10 µM. It also gave an IC50 [13] greater than 10 µM, an IC50 (Serotonin 5-HT6 receptor) greater than 10 µM and an IC50 [14] greater than 10 µM. For the same compound, the IC50 (Sigma 2 receptor) was greater than 10 µM, the IC50 (κ-opioid receptor) was greater than 10 µM and the IC50 (μ-opioid receptor) was greater than 10 µM. The CLint scaled at 1 μM (in vitro) was less than 17.3 mL/min/kg, the half-life at 1 μM (in vitro) was greater than 2.42 h and the microsomal CLint at 1 μM (in vitro) was less than 9.6 µL/min/mg.
